Here are results for three compounds from patent US11969497B2, “Method for producing an Entada seed extract enriched with metabolites of interest, extract produced by such a method, and cosmetic and dermocosmetic applications of such an extract” (EXSYMOL, priority 2018, dated 2024).

The structures appear in SMILES notation. Bounds are passed on as bounds.

For one test, the system named is MMP-1 metalloproteinase. The test can be described thus: MMP-1 secretion by primary human fibroblasts (NHDF) exposed to blue light, ELISA (test 6). Format: cell-based. Particulars: 5 mM; blue light 30 J/cm^2; non-irradiated 100, irradiated control 214.
The nature of test [1]: Photo-induced isomerization of trans-urocanic acid under UV-B (test 1a/1b), HPLC assay. As to conditions: test 1b. The procedure: Two series of experiments were performed, the first with a fixed dose UV-B radiation of 300 mJ/cm^2 (test 1a), the second with a varying dose of UV-B radiation (test 1b) and using as a control a synthetic replica of entadamide A, namely the compound “(E)-N-(2-hydroxyethyl)-3-[…]” which is the subject of patent application EP 3103436.
Experimentally, the test was carried out in a 0.01 M citrate buffer of pH 5.5, the slightly acidic pH being more in relation to the acidity of the superficial skin layers in which the trans-urocanic acid marker is located. Thus, the solutions to be irradiated (20 mL), namely the control with or without the extract according to the invention, were placed in glass Petri dishes, uncovered, then subjected at room temperature to UV-B irradiation using a UV-B oven (LabOSI®). Aliquots (500 μL) were then sampled in HPLC vials to be immediately stored protected from light and at low temperature (+4/+8° C.), prior to analysis by HPLC assay. Chromatographic profiles were thus obtained, and the residual amount of trans-urocanic acid was determined.
Experimentally concerning test 1b, the study was carried out in an almost identical manner to test 1a above, with first checking that under the experimental conditions defined, trans-urocanic acid generated a significant amount of cis-urocanic acid which can be measured by HPLC analysis. […]

A short description of test [2]: ABTS antioxidant test (test 2a). As to conditions: absorbance 734 nm after 6 minutes. The procedure:
(§1) This solution was then was diluted in water to obtain, under the test conditions, an absorbance of 0.5 at 734 nm. In each well of a 96-well microplate, were placed 100 μL of a solution of the extract according to the invention to be evaluated and 150 μL of oxidized ABTS solution. After 6 minutes, the absorbance was measured at 734 nm.

Test [3] in a line: DPPH antioxidant test (test 2b). Particulars: absorbance 517 nm after 30 minutes. The procedure: as §1
Experimentally by the DPPH test in each well of a 96 well micro plate, were placed 100 μL of a solution of the active to be evaluated and 100 μL of an ethanol solution of 1,1-diphenyl-2-picrylhydrazyle (DPPH-Aldrich D913-2) at 200 μM. After 30 minutes, the absorbance was measured at 517 nm.

Method for MMP-1 metalloproteinase: Primary human fibroblasts (“NHDF”) were isolated from a mammoplasty from a patient. The NHDFs were cultured in DMEM medium supplemented with 4.5 g/l of glucose and 10% of FCS. They were maintained in an atmosphere at 37° C. and 10% CO2. On D-3, the fibroblasts were inoculated in 24-well plates at a rate of 15,000 cells/cm^2. On D-1, the NHDFs were incubated at 37° C. and 10% CO2 for 24 h with the extract of Entada seeds according to the invention. […] After irradiation, the cells were reincubated at 37° C. and 10% CO2 for an additional 24 h and the culture supernatants were harvested in order to perform an ELISA assay of the MMP-1 metalloproteinase (Abcam kit, ab100603). The results obtained were normalized with respect to the quantity of cells per condition and subjected to statistical analysis in triplicate.

`CC(=O)N[C@@H](CS)C(=O)O` [N-acetyl-L-cysteine (NAC), N-acetyl-L-cysteine]: in the test with MMP-1 metalloproteinase, the “% of MMP-1 secreted” value was 61%.
As for `O=C(O)Cc1cc(O)ccc1O[C@@H]1O[C@H](CO)[C@@H](O)[C@H](O)[C@H]1O` [phaseoloidin, 2-O-β-D-glucopyranoside derivative of homogentisic acid], the “contribution of non-hydrolyzed phaseoloidin in the photoprotective activity of the extract against UV-B radiation” value in test [1] was greater than 25%. In addition, the EC50 is 8.3 µM in test [2] and 540 µM in test [3].
Regarding `O=C1O[C@H]([C@@H](O)CO)C(O)=C1O` [ascorbic acid], the EC50 in test [2] came to 24 µM; in test [3], 25 µM.
